From patent publication US7259177B2, “Cycloalkylmethoxy-substituted acetic acid derivatives, processes for their preparation and their use as pharmaceuticals” (Sanofi-Aventis Deutschland GmbH, priority 2003, dated 2007)
Structures can show the parent of a compound that is named as a salt.

molecular target: T1, human PPARα (Homo sapiens, UniProt Q07869); assay: Cellular PPARalpha assay (stably transfected HEK PPARalpha reporter cell line, luciferase); type: cell-based; details: 24 h incubation, luciferase readout
T1 construct: amino acids S167-Y468; expressed in transfected cells; host or cells: HEK (human embryo kidney) cells, stably transfected with pcDNA3 carrying the fusion construct
T1 sequence (Q07869 167-468): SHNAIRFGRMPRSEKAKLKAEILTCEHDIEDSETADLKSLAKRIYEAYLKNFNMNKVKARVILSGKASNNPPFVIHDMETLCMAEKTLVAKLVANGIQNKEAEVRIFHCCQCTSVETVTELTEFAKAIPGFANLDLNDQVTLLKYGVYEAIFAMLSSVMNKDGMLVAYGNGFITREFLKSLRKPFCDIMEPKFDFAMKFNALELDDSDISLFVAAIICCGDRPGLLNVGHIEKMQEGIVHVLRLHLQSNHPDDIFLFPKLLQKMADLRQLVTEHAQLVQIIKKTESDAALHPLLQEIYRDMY
Procedure: (A) Determination of EC50 Values of PPAR Agonists in the Cellular PPARalpha Assay
The potency of substances that bind to human PPARα and activate in an agonistic manner is analyzed using a stably transfected HEK cell line (HEK=human embryo kidney) which is referred to here as PPARalpha reporter cell line. It contains two genetic elements, a luciferase reporter element (pΔM-GAL4-Luc-Zeo) and a PPARalpha fusion protein (GR-GAL4-humanPPARα-LBD) that mediates expression of the luciferase reporter element depending on a PPARalpha ligand. The stably and constitutively expressed fusion protein GR-GAL4-humanPPARalpha-LBD binds in the cell nucleus of the PPARalpha reporter cell line via the GAL4 protein portion to the GAL4 DNA binding motifs 5′-upstream of the luciferase reporter element which is integrated in the genome of the cell line. There is only little expression of the luciferase reporter gene without addition of a PPARalpha ligand if fatty acid-depleted fetal calf serum (cs-FCS) is used in the assay. PPARα ligands bind and activate the PPARα fusion protein and thereby bring about expression of the luciferase reporter gene. The luciferase which is formed can be detected by means of chemiluminescence via an appropriate substrate.
The PPARalpha reporter cell line was prepared in 2 stages. Firstly, the luciferase reporter element was constructed and stably transfected into HEK cells. For this purpose, five binding sites of the yeast transcription factor GAL4 (each 5′-CGGAGTACTGTCCTCCGAG-3′ (SEQ ID NO:1)) were cloned in 5′-upstream of a 68 bp-long minimal MMTV promoter (Genbank Accession # V01175). The minimal MMTV promoter section contains a CCAAT box and a TATA element in order to enable efficient transcription by RNA polymerase II. The cloning and sequencing of the GAL4-MMTV construct took place in analogy to the description of Sambrook J. et. al. (Molecular cloning, Cold Spring Harbor Laboratory Press, 1989). Then the complete Photinus pyralis gene (Genbank Accession # M15077) was cloned in 3′-downstream of the GAL4-MMTV element. After sequencing, the luceriferase reporter element consisting of five GAL4 binding sites, MMTV promoter and luciferase gene was recloned into a plasmid which confers zeocin resistance in order to obtain the plasmid pΔM-GAL4-Luc-Zeo. This vector was transfected into HEK cells in accordance with the statements in Ausubel, F. M. et al. (Current protocols in molecular biology, Vol.1-3, John Wiley & Sons, Inc., 1995). […] In a second step, the PPARalpha fusion protein (GR-GAL4-humanPPARalpha-LBD) was introduced into the stable cell clone described. For this purpose, initially the cDNA coding for the N-terminal 76 amino acids of the glucocorticoid receptor (Genbank Accession # P04150) was linked to the cDNA section coding for amino acids 1-147 of the yeast transcription factor GAL4 (Genbank Accession # P04386). The cDNA of the ligand-binding domain of the human PPARalpha receptor (amino acids S167-Y468; Genbank Accession # S74349) was cloned in at the 3′-end of this GR-GAL4 construct. The fusion construct prepared in this way (GR-GAL4-humanPPARalpha-LBD) was recloned into the plasmid pcDNA3 (from Invitrogen) in order to enable constitutive expression therein by the cytomegalovirus promoter. This plasmid was linearized with a restriction endonuclease and stably transfected into the previously described cell clone containing the luciferase reporter element. The finished PPARalpha reporter cell line that contains a luciferase reporter element and constitutively expresses the PPARalpha fusion protein (GR-GAL4-human PPARalpha-LBD) was isolated by selection with zeocin (0.5 mg/ml) and G418 (0.5 mg/ml).
The activity of PPARalpha agonists is determined in a 3-day assay described below: […]

Row | SMILES | EC50
1 | Cc1ccc(-c2nc(CO[C@@H]3CCC[C@H](CSCC(=O)O)C3)c(C)o2)cc1 (racemic) [Example 22] | 0.07 nM
2 | Cc1ccc(-c2nc(CO[C@@H]3CCC[C@H](COC(Cc4ccccc4)C(=O)O)C3)c(C)o2)cc1 (relative stereo) [Example 4, 2-[cis-3-(5-methyl-2-p-tolyloxazol-4-ylmethoxy)cyclohexyl-methoxy]-3-phenylpropionic acid] | 25 nM
3 | Cc1ccc(-c2nc(CO[C@@H]3CCC[C@H](COC4(C(=O)O)CCCC4)C3)c(C)o2)cc1 (relative stereo) [Example 9, 1-[cis-3-(5-Methyl-2-p-tolyloxazol-4-ylmethoxy)cyclohexylmethoxy]cyclo-pentanecarboxylic acid] | 4.3 nM
4 | Cc1ccc(-c2nc(CO[C@H]3CCC[C@@H](COC(C)(C)C(=O)O)C3)c(C)o2)cc1 [Example 8a, 2-[(1R,3S)-3-(5-Methyl-2-p-tolyloxazol-4-ylmethoxy)cyclohexylmethoxy]-2-methylpropionic Acid] | 1.8 nM
5 | Cc1oc(-c2ccc(C(F)(F)F)cc2)nc1COC1CCCC(COC(C)(C)C(=O)O)C1 [Example 16, 2-methyl-2-{(1R,3S)-cis-3-[5-methyl-2-(4-trifluoromethyl-phenyl)oxazol-4-ylmethoxy]cyclohexylmethoxy}propionic acid] | 4 nM
6 | CCC(SCC1CCCC(OCc2nc(-c3ccc(C)cc3)oc2C)C1)C(=O)O (stereo not drawn) [Example 24, 2-[cis-3-(5-methyl-2-p-tolyloxazol-4-ylmethoxy)cyclohexylmethylsulfanyl]butyric acid] | 0.3 nM
7 | CCCCCC(C(=O)O)[S+]([O-])CC1CCCC(OCc2nc(-c3ccc(C)cc3)oc2C)C1 (stereo not drawn) [Example 33, 2-[cis-3-(5-methyl-2-p-tolyloxazol-4-ylmethoxy)cyclohexylmethylsulfinyl]heptanoic acid] | 17 nM

Next, values leading:

Row | EC50 | SMILES
8 | 79 nM | Cc1ccc(-c2nc(COC3CCCC(CN[C@H](C(=O)O)C(C)C)C3)c(C)o2)cc1 (mixture of isomers) [Example 42, (S)-3-Methyl-2{[cis-3-(5-methyl-2-p-tolyloxazol-4-ylmethoxy)cyclohexyl-methyl]amino}butyric acid]
9 | 12 nM | Cc1ccc(-c2nc(COC3CCCC(CN(Cc4ccccc4)[C@H](C(=O)O)C(C)C)C3)c(C)o2)cc1 (mixture of isomers) [Example 51, (S)-2-{benzyl-[cis-3-(5-methyl-2-p-tolyloxazol-4-ylmethoxy)-cyclohexylmethyl]amino}-3-methylbutyric acid trifluoroacetic acid salt]
10 | 0.4 nM | CCc1oc(-c2ccc3ccccc3c2)nc1COC[C@@H]1CCC[C@H](COC(C)(C)C(=O)O)C1 (racemic) [Example 64, 2-[cis-3-(5-ethyl-2-(2-naphthyl)oxazol-4-yl-methoxymethyl)cyclohexylmethoxy]-2-methylpropionic acid]
11 | 0.4 nM | COc1cccc(-c2nc(CO[C@@H]3CCC[C@H](CCC(C(=O)O)C(C)C)C3)c(C)o2)c1 (relative stereo) [Example 74, 2-(2-{cis-3-[2-(3-methoxyphenyl)-5-methyloxazol-4-ylmethoxy]cyclohexyl}ethyl)-3-methylbutyric acid]
12 | 8.5 nM | CCCCCC(C(=O)O)S(=O)(=O)CC1CCCC(OCc2nc(-c3ccc(C)cc3)oc2C)C1 (stereo not drawn) [Example 38, 2-[cis-3-(5-methyl-2-p-tolyloxazol-4-ylmethoxy)cyclohexylmethylsulfonyl]heptanoic acid]
